Data as given in patent publication US9708314B2, “Heterocyclic amide compound” (NISSAN CHEMICAL INDUSTRIES, LTD., priority 2013, dated 2017).

Assays:
Format in all cases: in vivo
[1] = test system: Echinochloa crus-galli var. crus-galli; assay: Test Example 4: herbicidal effect by application to foliage (diluvial soil, plastic box); details: for H (Echinochloa crus-galli var. crus-galli) herbicidal effect: application to foliage, application herbicide amount 320 g/ha; for H: Application herbicide amount 320 g/ha
Outline: (§1)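 Scores run from 0 (herbicidal ratio ≤5%) to 5 (≥90%, almost fully withered) and were assessed three weeks after foliar spraying. Seedlings had been raised for 14 days at 25-30° C in sterilized diluvial soil before treatment, with the emulsion diluted in water to the stated g/ha dose.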

Chenopodium album = assay: as above; details: for O (Chenopodium album) herbicidal effect: application to foliage, application herbicide amount 320 g/ha; for O: Application herbicide amount 320 g/ha
Outline: as §1

Monochoria vaginalis [2] = assay: Test Example 1: herbicidal activity, application before weed generation in submerged conditions; details: Application herbicide amount 320 g/ha; Seventeenth Table
From the text: (§2) [Test Example 1] Herbicidal Activity Test by Application Before Weed Generation in Submerged Conditions After alluvial soil was placed into 1/10000 are of Wagner pot, water was poured and mixed to form a submerged condition having a water depth of 4 cm. Seeds of Echinochloa oryzacola Vasing., Scirpus juncoides, and Monochoria vaginalis were sowed in a mixed manner in the above pot and thereafter 2.5 leaf stage Oryza sativa seedling was transplanted. On the day of sowing seeds, the emulsion agent containing the compound of the present invention prepared in accordance with Formulation Example 2 was diluted with water so as to be a predetermined herbicide amount and the diluted compound was applied to the surface of the water. The pot was placed in a greenhouse of 25° C. to 30° C. to grow plant. Three weeks after the herbicide application, effects on each plant were investigated in accordance with the following criteria. Criteria 5 Herbicidal ratio of 90% or more (almost completely withered) 4 Herbicidal ratio of 70% or more and less than 90% 3 Herbicidal ratio of 40% or more and less than 70% 2 Herbicidal ratio of 20% or more and less than 40% 1 Herbicidal ratio of 5% or more and less than 20% 0 Herbicidal ratio of 5% or less (almost no effect) A: Echinochloa oryzicola Vasing., B: Scirpus juncoides, C: Monochoria vaginalis, D: Leptochloa chinensis, E: Cyperus difformis, F: Digitaria ciliaris, G: Setaria viridis, H: Echinochloa crus-galli var. crus-galli, I: Avena fatua, J: Alopecurus myosuroides, K: Lolium multiflorum Lam., L: Apera spica-venti., M: Abutilon theophrasti, N: Amaranthus retroflexus, O: Chenopodium album, P: Stellaria media, Q: Galium spurium, R: Veronica persica, a: transplanted Oryza sativa, b: directly sowed Oryza sativa, c: Zea mays, d: Glycine max, e: Triticum aestivum, f: Beta vulgaris ssp. vulgaris, and g: Brassica campestris L. The application herbicide amount (g/ha) means an amount that a concentration is adjusted so that, when an application amount is converted into per hectare (1 ha), the herbicide is applied by the number of grams (g) of the described value.

[3] = test system: Echinochloa oryzacola Vasing.; assay: as above; details: Application herbicide amount 320 g/ha; Seventeenth Table
From the text: as §2

Scirpus juncoides [4] = assay: as above; details: Application herbicide amount 320 g/ha; Seventeenth Table
From the text: as §2

[5] = test system: Echinochloa oryzacola Vasing.; assay: Test Example 2: herbicidal activity, application during weed generation in submerged conditions; details: Eighteenth Table; application herbicide amount 320 g/ha
From the text: (§3) 5 Herbicidal ratio of 90% or more (almost completely withered) 4 Herbicidal ratio of 70% or more and less than 90% 3 Herbicidal ratio of 40% or more and less than 70% 2 Herbicidal ratio of 20% or more and less than 40% 1 Herbicidal ratio of 5% or more and less than 20% 0 Herbicidal ratio of 5% or less (almost no effect) [Test Example 2] Herbicidal Activity Test by Application During Weed Generation in Submerged Conditions After alluvial soil was placed into 1/10000 are of Wagner pot, water was poured and mixed to form a submerged condition having a water depth of 4 cm. Seeds of Echinochloa oryzacola Vasing., Scirpus juncoides, and Monochoria vaginalis were sowed in a mixed manner in the above pot and the pot was placed in the greenhouse of 25° C. to 30° C. to grow the plants. When Echinochloa oryzacola Vasing., Scirpus juncoides, and Monochoria vaginalis were grown to one leaf stage to two leaf stage, the emulsion agent containing the compound of the present invention prepared in accordance with Formulation Example 2 was diluted with water so as to be a predetermined herbicide amount and the diluted compound was applied to the surface of the water. Three weeks after the herbicide application, effects on each plant were investigated in accordance with the criteria of Test Example 1. A: Echinochloa oryzicola Vasing., B: Scirpus juncoides, C: Monochoria vaginalis, D: Leptochloa chinensis, E: Cyperus difformis, F: Digitaria ciliaris, G: Setaria viridis, H: Echinochloa crus-galli var. crus-galli, I: Avena fatua, J: Alopecurus myosuroides, K: Lolium multiflorum Lam., L: Apera spica-venti., M: Abutilon theophrasti, N: Amaranthus retroflexus, O: Chenopodium album, P: Stellaria media, Q: Galium spurium, R: Veronica persica, a: transplanted Oryza sativa, b: directly sowed Oryza sativa, c: Zea mays, d: Glycine max, e: Triticum aestivum, f: Beta vulgaris ssp. vulgaris, and g: Brassica campestris L. The application herbicide amount (g/ha) means an amount that a concentration is adjusted so that, when an application amount is converted into per hectare (1 ha), the herbicide is applied by the number of grams (g) of the described value.

Scirpus juncoides [6] = assay: as above; details: Eighteenth Table; application herbicide amount 320 g/ha
From the text: as §3

Triticum aestivum = assay: Test Example 4: effect on crop by application to foliage (diluvial soil, plastic box); details: for e (Triticum aestivum) effect on crop: application to foliage, application herbicide amount 320 g/ha; for e: Application herbicide amount 320 g/ha, effect on crop
Outline: as §1

Monochoria vaginalis [7] = assay: Test Example 2: herbicidal activity, application during weed generation in submerged conditions; details: Eighteenth Table; application herbicide amount 320 g/ha
From the text: as §3

Structure (SMILES) | H (Echinochloa crus-galli var. crus-galli) herbicidal effect [1] | O (Chenopodium album) herbicidal effect (Chenopodium album) | C: Monochoria vaginalis (herbicidal effect grade) (Monochoria vaginalis [2]) | A: Echinochloa oryzicola Vasing. (herbicidal effect grade) [3] | B: Scirpus juncoides (herbicidal effect grade) (Scirpus juncoides [4]) | A (Echinochloa oryzicola Vasing.) herbicidal ratio grade [5] | B (Scirpus juncoides) herbicidal ratio grade (Scirpus juncoides [6]) | e (Triticum aestivum) effect on crop (Triticum aestivum) | H [1] | O (Chenopodium album) | e (Triticum aestivum) | C (Monochoria vaginalis) herbicidal ratio grade (Monochoria vaginalis [7])
Cc1nnc(NC(=O)c2ccc(C(F)(F)F)n3c(CS(C)(=O)=O)nnc23)o1 [1-037] | 4 (Herbicidal ratio of 70% or more and less than 90%) | 5 (Herbicidal ratio of 90% or more (almost completely withered)) | 3 (Herbicidal ratio of 40% or more and less than 70%) | 0 (Herbicidal ratio of 5% or less (almost no effect)) | 2 (Herbicidal ratio of 20% or more and less than 40%) | 2 (Herbicidal ratio of 20% or more and less than 40%) | 2 (Herbicidal ratio of 20% or more and less than 40%) | 3 (Herbicidal ratio of 40% or more and less than 70%) |  |  |  | 
Cc1nnc(NC(=O)c2ccc(C(F)(F)F)n3c(S(C)(=O)=O)nnc23)o1 [1-040] | 4 (Herbicidal ratio of 70% or more and less than 90%) | 5 (Herbicidal ratio of 90% or more (almost completely withered)) | 3 (Herbicidal ratio of 40% or more and less than 70%) | 3 (Herbicidal ratio of 40% or more and less than 70%) | 3 (Herbicidal ratio of 40% or more and less than 70%) | 3 (Herbicidal ratio of 40% or more and less than 70%) | 2 (Herbicidal ratio of 20% or more and less than 40%) | 3 (Herbicidal ratio of 40% or more and less than 70%) |  |  |  | 
CCS(=O)(=O)c1nnc2c(C(=O)Nc3nnc(C)o3)ccc(C(F)(F)F)n12 [1-041] | 5 (Herbicidal ratio of 90% or more (almost completely withered)) | 5 (Herbicidal ratio of 90% or more (almost completely withered)) | 3 (Herbicidal ratio of 40% or more and less than 70%) | 3 (Herbicidal ratio of 40% or more and less than 70%) | 3 (Herbicidal ratio of 40% or more and less than 70%) | 2 (Herbicidal ratio of 20% or more and less than 40%) | 3 (Herbicidal ratio of 40% or more and less than 70%) | 3 (Herbicidal ratio of 40% or more and less than 70%) |  |  |  | 
COc1cccc(-c2nnc3c(C(=O)Nc4nnc(C)o4)ccc(C(F)(F)F)n23)c1 [1-046] | 5 (Herbicidal ratio of 90% or more (almost completely withered)) | 5 (Herbicidal ratio of 90% or more (almost completely withered)) | 3 (Herbicidal ratio of 40% or more and less than 70%) | 5 (Herbicidal ratio of 90% or more (almost completely withered)) | 3 (Herbicidal ratio of 40% or more and less than 70%) | 4 (Herbicidal ratio of 70% or more and less than 90%) |  | 0 (Herbicidal ratio of 5% or less (almost no effect)) |  |  |  | 
Cc1nnc(NC(=O)c2ccc(C(F)(F)F)n3c(CO)nnc23)o1 [1-067] |  |  | 0 (Herbicidal ratio of 5% or less (almost no effect)) | 3 (Herbicidal ratio of 40% or more and less than 70%) | 0 (Herbicidal ratio of 5% or less (almost no effect)) |  |  |  | 5 (Herbicidal ratio of 90% or more (almost completely withered)) | 5 (Herbicidal ratio of 90% or more (almost completely withered)) | 0 (Herbicidal ratio of 5% or less (almost no effect)) | 
Cc1nnc(NC(=O)c2cc(C)c(C(F)(F)F)n3c(C(C)C)nnc23)o1 [1-075] |  |  | 2 (Herbicidal ratio of 20% or more and less than 40%) | 2 (Herbicidal ratio of 20% or more and less than 40%) | 0 (Herbicidal ratio of 5% or less (almost no effect)) |  |  |  | 3 (Herbicidal ratio of 40% or more and less than 70%) | 5 (Herbicidal ratio of 90% or more (almost completely withered)) | 0 (Herbicidal ratio of 5% or less (almost no effect)) | 
C#CC[S+]([O-])c1nnc2c(C(=O)Nc3nnc(C)o3)ccc(C(F)(F)F)n12 (centres unmarked) [1-077] |  |  | 2 (Herbicidal ratio of 20% or more and less than 40%) | 0 (Herbicidal ratio of 5% or less (almost no effect)) | 0 (Herbicidal ratio of 5% or less (almost no effect)) |  |  |  | 4 (Herbicidal ratio of 70% or more and less than 90%) | 5 (Herbicidal ratio of 90% or more (almost completely withered)) | 0 (Herbicidal ratio of 5% or less (almost no effect)) | 
Cc1nnc(NC(=O)c2ccc(C(F)(F)F)n3c(Nc4ccccc4)nnc23)o1 [1-082] |  |  | 2 (Herbicidal ratio of 20% or more and less than 40%) | 3 (Herbicidal ratio of 40% or more and less than 70%) | 2 (Herbicidal ratio of 20% or more and less than 40%) |  |  |  | 4 (Herbicidal ratio of 70% or more and less than 90%) | 5 (Herbicidal ratio of 90% or more (almost completely withered)) | 0 (Herbicidal ratio of 5% or less (almost no effect)) | 
CCCSc1nnc2c(C(=O)Nc3nnc(C)o3)ccc(C(F)(F)F)n12 [1-087] |  |  | 3 (Herbicidal ratio of 40% or more and less than 70%) | 5 (Herbicidal ratio of 90% or more (almost completely withered)) |  | 4 (Herbicidal ratio of 70% or more and less than 90%) |  |  | 5 (Herbicidal ratio of 90% or more (almost completely withered)) | 5 (Herbicidal ratio of 90% or more (almost completely withered)) | 2 (Herbicidal ratio of 20% or more and less than 40%) | 3 (Herbicidal ratio of 40% or more and less than 70%)
